Several values for one entry are separate records, joined by “and”; a condition that tells them apart may be missing. Identical values can stand only once. Like-named read-outs stand apart in the source and are kept apart here. Marks after values point to notes of the source that are not given here. Values belong to the molecule of their own block, whether it stands above or below them.
Legend:
[1] = tested on: THP-1 cells
[2] = tested on: NLRP3-dependent pyroptosis in differentiated THP-1 cells; experiment: NLRP3-dependent pyroptosis (LDH release) in PMA-differentiated, LPS-primed, ATP-triggered THP-1 cells; type: cell-based, human; details: for inhibition at 10 µM: THP-1, 1.5 h, read-out: Pyroptosis Decrease, % inhibition at 10 µM; for inhibition at 1 µM: THP-1, 1 µM test compound (Figure 3)
[3] = tested on: IL-1β release in differentiated THP-1 cells; experiment: IL-1β release (ELISA) in supernatants of LPS/ATP-treated differentiated THP-1 cells; type: cell-based, human; details: same experiments as pyroptosis, vs vehicle-treated cells, mean ± SEM; for IL-1β Inhibition, % inhibition at 10 µM: 10 µM test compound; for inhibition at 10 µM: Homo sapiens, THP-1, 10 µM test compound
Method: Different techniques could be used to study NLRP3 inhibitors; the use of differentiated THP-1 cells treated with NLRP3 activating stimuli is suitable for the screening of large series of compounds [48]. All the synthesised compounds (Figure 2) were evaluated for their NLRP3 inhibitory activity by measuring their ability to prevent NLRP3-dependent pyroptosis in differentiated THP-1 cells. THP-1 cells were differentiated into macrophages by treatment with phorbol-myristate acetate (PMA; 50 nM; 24 h) and then treated with lipopolysaccharide (LPS; 10 µg/mL; 4 h) to promote NLRP3 expression. The cells were then incubated with test compounds at the fixed concentration of 10 µM for 1 h. Test compounds were dissolved in serum free medium containing 0.1% DMSO as the vehicle. NLRP3 was activated by the addition of ATP (5 mM), and the pyroptotic cell death was evaluated after 1.5 h by measuring the lactate dehydrogenase (LDH) released in the cell supernatants. The obtained results, expressed as pyroptosis% decrease with respect to vehicle-treated cells, are collected in Table 1. In the same experiments, the release of IL-1β was measured via an ELISA assay and the results, expressed as % inhibition of IL-1β release versus vehicle-treated cells, are reported in Table 1. Finally, the cytotoxicity of the synthesised compounds was evaluated by MTT assay after treatment of THP-1 cells with increasing concentration of test compounds (0.1–100 µM) for 72 h. […] The structural modulation of compound 2 was then carried out in order to understand whether it was possible to restore/increase the activity without the re-introduction of a Michael acceptor substructure.
Human myelomonocytic THP-1 cells were cultured in RPMI 1640 medium (Aurogene, Rome, Italy) supplemented with fetal bovine serum (10%; Aurogene), L-glutamine (2 mM; Aurogene), penicillin (100 IU/mL; Aurogene) and streptomycin ([…]; Aurogene). Cell culture medium was replaced every 2−3 days, and the cultures were maintained at 37 °C and 5% CO2 in a fully humidified incubator. The day before each experiment, cells were plated in 48-well culture plates (90.000 cells/well) and were differentiated by treatment with PMA (50 nM, 24 h; Sigma-Aldrich). PMA-differentiated THP-1 cells were washed twice with phosphate-buffered saline (PBS) and primed with LPS (10 μg/mL, 4 h; Sigma-Aldrich) in serum-free medium. Cells were then incubated with compounds dissolved in medium containing 0.1% DMSO for 1 h and cell death was triggered with ATP (5 mM, 90 min; Sigma-Aldrich). MCC950 (Sigma-Aldrich batch #45216 and batch #85021 and from Crysdot (product n. CD31002496; OS05876-18070932) was used in the experiments.
IL-1β release was quantified in differentiated THP-1 supernatant, obtained as previously described, using Human IL-1 beta Uncoated ELISA kit (Invitrogen, Waltham, MA, USA), according to the manufacture’s instruction.

[4] = target: T1, human recombinant NLRP3 (Homo sapiens, UniProt Q96P20); experiment: In vitro NLRP3 ATPase activity, on-bead ADP-Glo assay with immobilised NLRP3-GFP; type: biochemical; details: for inhibition at 100 µM / Inhibition of NLRP3 ATPase activity (% reduction in ATP hydrolysis relative to vehicle control): 100 μM compound, ATP 800 μM, mean ± SEM, n = 4; for inhibition at 100 µM: read-out: Inhibition of NLRP3 ATPase activity (% reduction in ATP hydrolysis relative to vehicle control); for NLRP3 ATPase inhibition at 1 mM compared with 100 µM: 1 mM vs 100 µM compound, data not shown
T1 construct: made in house; host or cells: HEK293T cells (transient transfection, captured from lysate on GFP-Trap Sepharose)

[5] = 72 h treatment, 0.1–100 µM, MTT, TC50 ± SEM of three experiments
[6] = Homo sapiens, 10 µM test compound, 1 h before ATP (5 mM, 90 min), vs vehicle-treated cells, mean ± SEM, NA = not active at 10 µM
[7] = 10 µM test compound, 1 h before ATP (5 mM, 90 min), vs vehicle-treated cells, mean ± SEM, NA = not active at 10 µM

T1 sequence (Q96P20 whole entry): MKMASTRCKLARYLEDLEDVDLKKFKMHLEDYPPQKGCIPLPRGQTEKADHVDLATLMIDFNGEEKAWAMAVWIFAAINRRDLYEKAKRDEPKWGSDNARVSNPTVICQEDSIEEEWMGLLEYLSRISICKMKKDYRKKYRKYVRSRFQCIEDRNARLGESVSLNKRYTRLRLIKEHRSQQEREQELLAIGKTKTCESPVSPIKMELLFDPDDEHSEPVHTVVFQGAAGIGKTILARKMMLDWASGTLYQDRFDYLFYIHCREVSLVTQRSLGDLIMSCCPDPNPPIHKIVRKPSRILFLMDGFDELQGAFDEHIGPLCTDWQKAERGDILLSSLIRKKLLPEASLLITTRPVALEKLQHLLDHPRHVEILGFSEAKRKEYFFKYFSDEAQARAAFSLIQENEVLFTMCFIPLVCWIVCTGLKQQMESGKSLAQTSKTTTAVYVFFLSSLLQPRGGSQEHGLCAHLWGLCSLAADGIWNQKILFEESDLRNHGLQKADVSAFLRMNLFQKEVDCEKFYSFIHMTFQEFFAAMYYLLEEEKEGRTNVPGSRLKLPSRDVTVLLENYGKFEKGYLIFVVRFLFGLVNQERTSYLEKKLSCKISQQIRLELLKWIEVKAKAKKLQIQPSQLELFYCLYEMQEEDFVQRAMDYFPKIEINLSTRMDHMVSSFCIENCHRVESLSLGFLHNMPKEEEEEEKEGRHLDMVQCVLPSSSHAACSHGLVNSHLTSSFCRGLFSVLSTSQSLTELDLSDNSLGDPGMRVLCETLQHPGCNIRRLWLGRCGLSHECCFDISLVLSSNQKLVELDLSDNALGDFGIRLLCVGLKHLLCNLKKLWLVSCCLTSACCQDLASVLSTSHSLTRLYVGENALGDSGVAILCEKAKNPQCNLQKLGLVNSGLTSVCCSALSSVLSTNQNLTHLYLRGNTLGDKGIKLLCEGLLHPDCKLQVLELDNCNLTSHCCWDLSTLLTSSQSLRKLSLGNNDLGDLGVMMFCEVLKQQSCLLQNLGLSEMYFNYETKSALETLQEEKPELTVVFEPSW

- inhibition at 100 µM [4]: 28.4 ± 2.6%
Molecule: C=C(Cc1ccccc1Cl)C(=O)N1CCC(n2c(=O)[nH]c3ccccc32)CC1 [Compound 1, 1-(1-(2-(2-chlorobenzyl)acryloyl)piperidin-4-yl)-1,3-dihydro-2H-benzo[d]imidazol-2-one]
- Cytotoxicity TC50 [1, 5]: 32.9 ± 19 µM and 32.9 ± 19.0 µM
- inhibition at 10 µM [2, 6]: 24.9 ± 6.3%
- IL-1β Inhibition, % inhibition at 10 µM ([3]; 10 µM): 14.4 ± 5.0%
- inhibition at 10 µM [3]: 19.4 ± 0.4%

Molecule: 3-(2-chlorophenyl)-N-methyl-N-(3-(2-oxo-2,3-dihydro-1H-benzo[d]imidazole-1-yl)propyl)propenamide [Compound 11]
- Pyroptosis Decrease, % inhibition at 10 µM [2]: inactive

Molecule: CC(C)(O)c1coc(S(=O)(=O)NC(=O)Nc2c3c(cc4c2CCC4)CCC3)c1 [MCC950, reference compound]
- Cytotoxicity TC50 [1, 5]: >100 µM
- inhibition at 10 µM [3]: 37.6 ± 6%

- Inhibition of NLRP3 ATPase activity (% reduction in ATP hydrolysis relative to vehicle control) [4]: reduced the inhibitory potential
Molecule: O=C(CCc1ccccc1Cl)n1c(=O)n(Cc2nn[nH]n2)c2ccccc21 [Compound 19, 1-((2H-tetrazol-5-yl)methyl)-3-(3-(2-chlorophenyl)propanoyl)-1,3-dihydro-2H-benzo[d]imidazol-2-one]
- Cytotoxicity TC50 [1, 5]: >100 µM
- inhibition at 10 µM [2, 6]: 26.2 ± 1.6%
- inhibition at 10 µM [3]: < 10%

Molecule: CCOC(=O)Cn1c(=O)n(CCc2ccccc2Cl)c2ccccc21 [Compound 22, Ethyl 2-(3-(2-chlorophenethyl)-2-oxo-2,3-dihydro-1H-benzo[d]imidazol-1-yl) acetate]
- Cytotoxicity TC50 [1, 5]: 92.8 ± 2.1 µM

- inhibition at 100 µM [4]: 26.5 ± 3.1%
- NLRP3 ATPase inhibition at 1 mM compared with 100 µM [4]: no significant differences
Molecule: N#CN=C(NCc1ccccc1)NC1CCN(C(=O)CCc2ccccc2Cl)CC1 [Compound 13, 1-benzyl-3-(1-(3-(2-chlorophenyl)propanoyl)piperidin-4-yl)-2-cyanoguanidine]
- Cytotoxicity TC50 [1, 5]: 85.7 ± 5.6 µM
- Pyroptosis Decrease, % inhibition at 10 µM [2, 7]: able to inhibit
- inhibition at 1 µM ([2]; Homo sapiens): 20 to 30%
- inhibition at 10 µM [2, 6]: 45 ± 8.8%
- IL-1β Inhibition, % inhibition at 10 µM ([3]; 10 µM): able to inhibit
- inhibition at 10 µM [3]: 25.2 ± 4.9%
- Inhibition of NLRP3 ATPase activity (% reduction in ATP hydrolysis relative to vehicle control) [4]: significant inhibition of ATPase activity

- Inhibition of NLRP3 ATPase activity (% reduction in ATP hydrolysis relative to vehicle control) [4]: able to reduce ATPase activity
- inhibition at 100 µM [4]: 27.2 ± 6.3%
- NLRP3 ATPase inhibition at 1 mM compared with 100 µM [4]: no significant differences
Molecule: O=C(O)Cn1c(=O)n(C(=O)CCc2ccccc2Cl)c2ccccc21 [Compound 18, 2-(3-(3-(2-chlorophenyl)propanoyl)-2-oxo-2,3-dihydro-1H-benzo[d]-imidazol-1-yl)acetic acid]
- Cytotoxicity TC50 [1, 5]: >100 µM
- Pyroptosis Decrease, % inhibition at 10 µM [2, 7]: active
- inhibition at 1 µM ([2]; Homo sapiens): 20 to 30%
- inhibition at 10 µM [2, 6]: 36.4 ± 11.1%
- inhibition at 10 µM [3]: 21.1 ± 3.1%

Molecule: N#CN=c1[nH]c2ccccc2n1C1CCN(C(=O)CCc2ccccc2Cl)CC1 [Compound 15, N-(1-(1-(3-(2-chlorophenyl)propanoyl)piperidin-4-yl)-1,3-dihydro-2H-benzo[d]imidazol-2-ylidene)cyanamide]
- Cytotoxicity TC50 [1, 5]: 83.4 ± 0.8 µM
- Pyroptosis Decrease, % inhibition at 10 µM [2, 7]: inactive
- Inhibition of NLRP3 ATPase activity (% reduction in ATP hydrolysis relative to vehicle control) [4]: significant inhibition of ATPase activity

Molecule: 3-(2-chlorophenyl)-N-(4-oxo-4-(4-(2-oxo-2,3-dihydro-1H-benzo[d]imidazol-1-yl)piperidin-1-yl)butyl)propenamide [Compound 8]
- Cytotoxicity TC50 [1]: 86.3 ± 5.1 µM
- Pyroptosis Decrease, % inhibition at 10 µM [2, 7]: 32.2 ± 10.6 ^d %

Molecule: 1-(1-(2-(2-chlorophenyl)acetyl)piperidin-4-yl)-1,3-dihydro-2H-benzo[d]imidazol-2-one [Compound 4]
- Cytotoxicity TC50 [1]: 80.9 ± 3.2 µM
- Pyroptosis Decrease, % inhibition at 10 µM [2]: inactive
- Inhibition of NLRP3 ATPase activity (% reduction in ATP hydrolysis relative to vehicle control) [4]: reduce

Molecule: O=C(CCc1ccccc1Cl)N1CCC(n2cnc3ccccc32)CC1 [Compound 14, 1-(4-(1H-benzo[d]imidazol-1-yl)piperidin-1-yl)-3-(2-chlorophenyl)propan-1-one]
- Cytotoxicity TC50 [1, 5]: 92.6 ± 4.0 µM
- Pyroptosis Decrease, % inhibition at 10 µM [2, 7]: inactive

- inhibition at 100 µM [4]: 28.6 ± 5.5%
Molecule: O=C(CCc1ccccc1Cl)N1CCC(n2c(=O)[nH]c3ccccc32)CC1 [Compound 2, 1-(1-(3-(2-chlorophenyl)propanoyl)piperidin-4-yl)-1,3-dihydro-2H-benzo[d]imidazol-2-one]
- Cytotoxicity TC50 [1, 5]: 64.1 ± 4.7 µM
- inhibition at 50 µM ([2]; Homo sapiens, THP-1, 50 µM test compound): 29.1 ± 4.8%
- inhibition at 10 µM [2, 6]: 14.9 ± 5.8%
- inhibition at 10 µM [3]: 10.3 ± 5.8%

Molecule: Ethyl 2-(3-(3-(2-chlorophenyl)propanoyl)-2-oxo-2,3-dihydro-1H-benzo[d] imidazol-1-yl)propanoate [Compound 20]
- Cytotoxicity TC50 [1]: 57.6 ± 3.2 µM
- Pyroptosis Decrease, % inhibition at 10 µM [2, 7]: 24.4 ± 6.8%
- IL-1β Inhibition, % inhibition at 10 µM [3]: 13.8 ± 5.4%

Molecule: O=C(CCc1ccccc1Cl)n1c(=O)[nH]c2ccccc21 [Compound 16, 1-(3-(2-chlorophenyl)propanoyl)-1,3-dihydro-2H-benzo[d]imidazol-2-one]
- Cytotoxicity TC50 [1, 5]: 77.3 ± 3.7 µM
- inhibition at 10 µM [2, 6]: 37.7 ± 7.6%
- inhibition at 10 µM [3]: 14.9 ± 8.8%

Molecule: O=C(CCc1ccccc1Cl)NCCC(=O)N1CCC(n2c(=O)[nH]c3ccccc32)CC1 [Compound 7, 3-(2-chlorophenyl)-N-{3-oxo-3-[4-(2-oxo-2,3-dihydro-1,3-benzodiazol-1-yl)piperidin-1-yl]propyl}propanamide]
- Cytotoxicity TC50 [1, 5]: 62.4 ± 13.3 µM
- inhibition at 10 µM [2, 6]: ~35%
- IL-1β Inhibition, % inhibition at 10 µM ([3]; 10 µM): 17.8 ± 7.5%
- inhibition at 10 µM [3]: 18 to 21%

Molecule: CNC(=NC#N)NC1CCN(C(=O)CCc2ccccc2Cl)CC1 [Compound 12, 1-(1-(3-(2-chlorophenyl)propanoyl)piperidin-4-yl)-2-cyano-3-methylguanidine]
- Cytotoxicity TC50 [1, 5]: >100 µM
- inhibition at 10 µM [2, 6]: 15.7 ± 9.1%
- inhibition at 10 µM [3]: 19 ± 0.4%

- Inhibition of NLRP3 ATPase activity (% reduction in ATP hydrolysis relative to vehicle control) [4]: reduced the inhibitory potential
Molecule: 2-(3-(3-(2-chlorophenyl)propanoyl)-2-oxo-2,3-dihydro-1H-benzo[d]- imidazol-1-yl)propionic acid [Compound 21]
- Cytotoxicity TC50 [1]: 80.1 ± 1.4 µM
- Pyroptosis Decrease, % inhibition at 10 µM [2, 7]: the activity was suppressed

Molecule: O=C(CCc1ccccc1Cl)NCCCn1c(=O)[nH]c2ccccc21 [Compound 10, 3-(2-chlorophenyl)-N-(3-(2-oxo-2,3-dihydro-1H-benzo[d]imidazol-1-yl)propyl) propanamide]
- Cytotoxicity TC50 [1, 5]: >100 µM
- Pyroptosis Decrease, % inhibition at 10 µM [2, 7]: inactive
- Inhibition of NLRP3 ATPase activity (% reduction in ATP hydrolysis relative to vehicle control) [4]: no effect on ATPase inhibition was detected

Molecule: O=C(O)Cn1c(=O)n(CCc2ccccc2Cl)c2ccccc21 [Compound 23, 2-(3-(2-chlorophenethyl)-2-oxo-2,3-dihydro-1H-benzo[d]imidazol-1-yl)acetic acid]
- Cytotoxicity TC50 [1, 5]: 62.4 ± 1.2 µM
- inhibition at 10 µM [2, 6]: 26.3 ± 3.5%
- inhibition at 10 µM [3]: 13.9 ± 16.4%
